Tests used:
Experiment in all cases: relative viability (nuclei count vs DMSO), 5 days (fraction); higher = more cells survive
Gemcitabine + Decitabine = compound: Nc1ccn([C@@H]2O[C@H](CO)[C@@H](O)C2(F)F)c(=O)n1 [Gemcitabine] + Nc1ncn([C@H]2C[C@H](O)[C@@H](CO)O2)c(=O)n1 [Decitabine] (partner 2 µM)
Procedure, shortened: (§1)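 Nuclei were stained with Hoechst during a one-step fixation (final 0.05% Triton X-100, 1% formaldehyde, 1 ug/ml Hoechst) carried out 5 days after dosing, then counted on 4× images. The cells, lung cancer lines in 1536-well plates, had been dosed by pin tool the day after seeding with one drug alone or a fixed anchor-drug dose plus five library-drug doses (not always all listed) in √10 steps. Relative viability is the nuclei count in treated wells divided by that in vehicle wells, and each value is the median of duplicate plates.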

Gemcitabine + Lapatinib = compound: Nc1ccn([C@@H]2O[C@H](CO)[C@@H](O)C2(F)F)c(=O)n1 [Gemcitabine] + CS(=O)(=O)CCNCc1ccc(-c2ccc3ncnc(Nc4ccc(OCc5cccc(F)c5)c(Cl)c4)c3c2)o1 [Lapatinib] (partner 2 µM)
Procedure, shortened: as §1

Gemcitabine + AZD7762 = compound: Nc1ccn([C@@H]2O[C@H](CO)[C@@H](O)C2(F)F)c(=O)n1 [Gemcitabine] + NC(=O)Nc1cc(-c2cccc(F)c2)sc1C(=O)N[C@H]1CCCNC1 [AZD7762] (partner 0.2 µM)
Procedure, shortened: as §1

Gemcitabine + Bortezomib = compound: Nc1ccn([C@@H]2O[C@H](CO)[C@@H](O)C2(F)F)c(=O)n1 [Gemcitabine] + CC(C)C[C@H](NC(=O)[C@H](Cc1ccccc1)NC(=O)c1cnccn1)B(O)O [Bortezomib] (partner 0.002 µM)
Procedure, shortened: as §1

Cell Line	relative viability (Gemcitabine + Decitabine; first compound 0.001 µM)	relative viability (Gemcitabine + Decitabine; first compound 0.003162 µM)	relative viability (Gemcitabine + Decitabine; first compound 0.01 µM)	relative viability (Gemcitabine + Decitabine; first compound 0.03162 µM)	relative viability (Gemcitabine + Decitabine; first compound 0.1 µM)	relative viability (Gemcitabine + Lapatinib; first compound 0.001 µM)	relative viability (Gemcitabine + Lapatinib; first compound 0.003162 µM)	relative viability (Gemcitabine + Lapatinib; first compound 0.01 µM)	relative viability (Gemcitabine + Lapatinib; first compound 0.03162 µM)	relative viability (Gemcitabine + Lapatinib; first compound 0.1 µM)	relative viability (Gemcitabine + AZD7762; first compound 0.001 µM)	relative viability (Gemcitabine + AZD7762; first compound 0.003162 µM)	relative viability (Gemcitabine + AZD7762; first compound 0.01 µM)	relative viability (Gemcitabine + AZD7762; first compound 0.03162 µM)	relative viability (Gemcitabine + AZD7762; first compound 0.1 µM)	relative viability (Gemcitabine + Bortezomib; first compound 0.001 µM)	relative viability (Gemcitabine + Bortezomib; first compound 0.003162 µM)	relative viability (Gemcitabine + Bortezomib; first compound 0.01 µM)	relative viability (Gemcitabine + Bortezomib; first compound 0.03162 µM)	relative viability (Gemcitabine + Bortezomib; first compound 0.1 µM)
NCI-H2405	0.735	0.676	0.427	0.31	0.226	1.03	0.445	0.362	0.243	0.162	0.518	0.23	0.193	0.193	0.195	0.974	0.957	0.582	0.275	0.231
NCI-H3122	0.361	0.396	0.389	0.175	0.146	1.02	1.04	0.926	0.476	0.243	1.02	0.783	0.126	0.0803	0.097	1.08	0.985	0.889	0.303	0.24
PC-3 [JPC-3]	0.935	0.573	0.602	0.524	0.465	0.468	0.416	0.424	0.278	0.266	0.761	0.482	0.336	0.35	0.299	0.835	0.785	0.512	0.286	0.237
PC-14	0.217	0.0953	0.0507	0.0388	0.0405	0.323	0.234	0.203	0.0925	0.0562	0.269	0.0798	0.0434	0.0466	0.0618	0.867	0.507	0.42	0.0489	0.0512
RERF-LC-KJ	0.831	0.701	0.636	0.529	0.324	0.858	0.821	0.89	0.909	0.407	1.14	1	0.951	0.233	0.181	1.12	1.25	0.92	0.559	0.294
